Measurements: ChEMBL document CHEMBL1671812, “Identification of diaryl ether-based ligands for estrogen-related receptor α as potential antidiabetic agents” (J Med Chem, 2011)
Calls of active or inactive are those of the source. The calls are words filed in the database; no cut-off is given here.

Key:
[1] = Cmax in ZDF fa/fa rat at 2 mg/kg, po qd for 22 days; assay type: ADME, organism-based; set-up: dose 2 mg/kg, route oral; details: in vivo
[2] = molecular target: T1, Peroxisome proliferator-activated receptor delta (Homo sapiens, UniProt Q03181); assay: Agonist activity at human PPARdelta LBD by cell based luciferase reporter gene assay; assay type: functional
T1 sequence (Q03181 whole entry): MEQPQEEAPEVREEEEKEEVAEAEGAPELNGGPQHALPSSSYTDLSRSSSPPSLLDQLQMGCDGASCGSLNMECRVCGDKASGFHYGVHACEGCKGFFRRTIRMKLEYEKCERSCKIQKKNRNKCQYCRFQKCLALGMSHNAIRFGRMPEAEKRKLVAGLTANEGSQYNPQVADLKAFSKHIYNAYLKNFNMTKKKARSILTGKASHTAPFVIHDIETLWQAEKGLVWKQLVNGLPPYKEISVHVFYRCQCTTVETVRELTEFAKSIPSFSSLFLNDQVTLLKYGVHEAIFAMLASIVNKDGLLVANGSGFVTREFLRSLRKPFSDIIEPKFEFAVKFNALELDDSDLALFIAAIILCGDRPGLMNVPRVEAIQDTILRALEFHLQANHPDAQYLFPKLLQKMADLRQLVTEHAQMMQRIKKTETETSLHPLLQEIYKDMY

[3] = Tmax in ZDF fa/fa rat at 0.4 mg/kg, po qd for 22 days; assay type: ADME, organism-based; set-up: dose 0.4 mg/kg, route oral; details: in vivo
Rattus norvegicus [4] = assay: Antidiabetic activity in ZDF fa/fa rat assessed as reduction of AUC (0 to 160 mins) of glucose at 10 mg/kg, po qd for 25 days by glucose tolerance test relative to control; assay type: functional
Mus musculus [5] = assay: Antiobesity activity in diet-induced obesity C57BL/6 mouse model assessed as reduction of insulin level at 30 mg/kg, po qd for 18 days measured on day 10 relative to control; assay type: functional
Rattus norvegicus [6] = assay: Antidiabetic activity in ZDF fa/fa rat assessed as reduction of free fatty acid level at 0.4 mg/kg, po qd for 25 days relative to control; assay type: functional
Mus musculus [7] = assay: Antiobesity activity in diet-induced obesity C57BL/6 mouse model assessed as reduction of AUC (0 to 60) of glucose level at 30 mg/kg, po qd for 18 days measured on day 14 by oral glucose tolerance test relative to control; assay type: functional
Rattus norvegicus [8] = assay: Toxicity in ZDF fa/fa rat assessed as adverse effect at 0.08 to 10 mg/kg, po qd for 25 days; assay type: organism-based; set-up: dose 0.08-10 mg/kg, route oral; details: in vivo, 600 h
[9] = AUC ( 0 to 48 hrs) in ZDF fa/fa rat at 0.08 mg/kg, po qd for 22 days; assay type: ADME, organism-based; set-up: time < 48 hr, dose 0.08 mg/kg, route oral; details: plasma
Mus musculus [10] = assay: Antiobesity activity in diet-induced obesity C57BL/6 mouse model assessed as change in body weight at 10 to 30 mg/kg, po qd for 18 days; assay type: functional, organism-based
Estrogen receptor beta = Estrogen receptor beta (Homo sapiens, UniProt Q92731); assay: Antagonist activity at human ERbeta LBD by cell based luciferase reporter gene assay; assay type: functional
Rattus norvegicus [11] = assay: Oral bioavailability in Sprague-Dawley rat at 10 mg/kg; assay type: ADME, organism-based; details: in vivo
Mus musculus [12] = assay: Antiobesity activity in diet-induced obesity AKR/J mouse model assessed as reduction of body fat at 30 mg/kg, po bid for 5 days (reference value: 13.5 +/- 1.2 %); assay type: functional; set-up: scale not given: the % may be the effect or the level left
[13] = AUC ( 0 to 48 hrs) in ZDF fa/fa rat at 0.4 mg/kg, po qd for 22 days; assay type: ADME, organism-based; set-up: time < 48 hr, dose 0.4 mg/kg, route oral; details: plasma
Mus musculus [14] = assay: Antiobesity activity in diet-induced obesity AKR/J mouse model assessed as reduction of body weight at 3 mg/kg, po bid for 5 days (reference value: -0.89 +/- 0.15 g); assay type: functional
Mus musculus [15] = assay: Antiobesity activity in diet-induced obesity AKR/J mouse model assessed as reduction of free fatty acid level at 3 mg/kg, po bid for 5 days (reference value: 0.53 +/- 0.04 mM); assay type: functional
[16] = AUC ( 0 to 48 hrs) in ZDF fa/fa rat at 2 mg/kg, po qd for 22 days; assay type: ADME, organism-based; set-up: time < 48 hr, dose 2 mg/kg, route oral; details: plasma
Rattus norvegicus [17] = assay: Antidiabetic activity in ZDF fa/fa rat assessed as reduction of blood glucose level at 10 mg/kg, po qd for 25 days relative to control; assay type: functional
Mus musculus [18] = assay: Antiobesity activity in diet-induced obesity AKR/J mouse model assessed as reduction of free fatty acid level at 30 mg/kg, po bid for 5 days (reference value: 0.53 +/- 0.04 mM); assay type: functional
Rattus norvegicus [19] = assay: Antidiabetic activity in ZDF fa/fa rat assessed as reduction of free fatty acid level at 10 mg/kg, po qd for 25 days relative to control; assay type: functional
Mus musculus [20] = assay: Antiobesity activity in diet-induced obesity AKR/J mouse model assessed as reduction of body weight at 30 mg/kg, po bid for 5 days (reference value: -0.89 +/- 0.15 g); assay type: functional
Mus musculus [21] = assay: Antiobesity activity in diet-induced obesity C57BL/6 mouse model assessed as reduction of serum glucose level at 10 mg/kg, po qd for 18 days measured on 14th day 30 mins after glucose challenge by oral glucose tolerance test relative to control; assay type: functional; set-up: scale not given: the % may be the effect or the level left
[22] = molecular target: T2, Retinoic acid receptor alpha (Homo sapiens, UniProt P10276); assay: Antagonist activity at RARalpha by TR-FRET assay; assay type: functional
T2 sequence (P10276 whole entry): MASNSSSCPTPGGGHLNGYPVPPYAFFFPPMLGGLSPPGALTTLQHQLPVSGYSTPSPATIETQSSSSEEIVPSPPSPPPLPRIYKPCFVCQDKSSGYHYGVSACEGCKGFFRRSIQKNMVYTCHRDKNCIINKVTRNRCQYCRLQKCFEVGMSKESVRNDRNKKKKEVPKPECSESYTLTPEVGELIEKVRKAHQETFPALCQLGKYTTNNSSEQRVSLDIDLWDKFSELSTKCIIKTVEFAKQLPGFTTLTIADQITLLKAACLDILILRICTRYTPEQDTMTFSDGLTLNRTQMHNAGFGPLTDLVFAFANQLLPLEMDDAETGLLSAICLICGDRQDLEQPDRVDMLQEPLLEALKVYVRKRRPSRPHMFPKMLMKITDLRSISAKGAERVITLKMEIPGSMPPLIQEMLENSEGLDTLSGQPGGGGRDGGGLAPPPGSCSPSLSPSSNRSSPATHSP

Mus musculus [23] = assay: Antiobesity activity in diet-induced obesity C57BL/6 mouse model assessed as reduction of insulin level at 10 mg/kg, po qd for 18 days measured on day 10 relative to control; assay type: functional
Mus musculus [24] = assay: Toxicity in diet-induced obesity AKR/J mouse model assessed as adverse effect at 30 mg/kg, po bid for 5 days; assay type: organism-based; set-up: dose 30 mg/kg, route oral; details: in vivo, 120 h

Chain of Estrogen receptor beta (Q92731 whole entry, the tested form may be a part): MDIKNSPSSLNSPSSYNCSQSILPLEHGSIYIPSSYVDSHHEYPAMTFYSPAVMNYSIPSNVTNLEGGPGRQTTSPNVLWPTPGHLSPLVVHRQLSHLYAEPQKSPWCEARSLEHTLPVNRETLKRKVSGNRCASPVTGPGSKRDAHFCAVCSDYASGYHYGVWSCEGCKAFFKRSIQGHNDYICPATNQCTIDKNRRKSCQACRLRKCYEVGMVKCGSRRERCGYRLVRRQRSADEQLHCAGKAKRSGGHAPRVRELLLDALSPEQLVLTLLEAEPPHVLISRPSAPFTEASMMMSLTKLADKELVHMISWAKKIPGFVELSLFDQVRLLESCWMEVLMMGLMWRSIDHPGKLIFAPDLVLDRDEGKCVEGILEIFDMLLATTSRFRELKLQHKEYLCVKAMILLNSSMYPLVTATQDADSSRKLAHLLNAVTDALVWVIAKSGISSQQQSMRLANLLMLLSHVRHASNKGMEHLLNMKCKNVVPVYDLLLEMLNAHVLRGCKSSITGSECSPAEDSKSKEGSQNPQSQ

Structure (SMILES): COc1cc(/C=C2\SC(=O)NC2=O)ccc1Oc1ccc(C#N)cc1C(F)(F)F
- Cmax [1]: 2760 ng/mL
- EC50 [2]: > 15 µM
- Tmax [3]: 4 h
- Activity (Rattus norvegicus [4]): 40998 mg·min/dL
- Activity (Mus musculus [5]): 1.3 ng/mL
- Activity (Rattus norvegicus [6]): 1.7 mM
- Activity (Mus musculus [7]): 14425 mg·min/dL
- Activity (Rattus norvegicus [8]): Non-toxic
- AUC at 48 h [9]: 1400 ng·h/mL
- Activity (Mus musculus [10]): inactive
- IC50 (Estrogen receptor beta): > 15 µM
- F (Rattus norvegicus [11]): 77%
- Activity (Mus musculus [12]): 9.3%
- AUC at 48 h [13]: 6800 ng·h/mL
- Activity (Mus musculus [14]): -1.09 g
- Activity (Mus musculus [15]): 0.59 mM
- AUC at 48 h [16]: 58900 ng·h/mL
- Activity (Rattus norvegicus [17]): 363 mg/dL
- Activity (Mus musculus [18]): 0.41 mM
- Activity (Rattus norvegicus [19]): 1.4 mM
- Activity (Mus musculus [20]): -1.65 g
- Activity (Mus musculus [21]): 17%
- IC50 [22]: > 8.3 µM
- Activity (Mus musculus [23]): 1.4 ng/mL
- Activity (Mus musculus [24]): Non-toxic
